Measured values taken from EPA's ToxValDB 9.5 (doi:10.2903/j.efsa.2009.333r).
In brackets after ≈: the same amount, converted by molar mass.

What was measured:
Apis mellifera = conditions: acute; duration: 48 hours; dermal; mortality
Gasterosteus aculeatus = conditions: acute; duration: 96 hours; mortality
Oncorhynchus mykiss = conditions: chronic/long-term; duration: 97 days; growth
Tagia sp. = conditions: acute; duration: 14 days; mortality
Daphnia magna = conditions: chronic/long-term; duration: 21 days; reproduction
Oryctolagus sp. = conditions: developmental; development
Homo sapiens = conditions: clinical; oral; M/F; clinical chemistry
Rattus norvegicus = conditions: for NOAEL: clinical chemistry
Colinus virginianus = conditions: for LD50: acute, oral, mortality
Aphidius rhopalosiphi = assay: LR50; higher = less toxic; conditions: acute; duration: 48 hours; mortality

Compound | LD50 (Apis mellifera) [µg/piece] | LC50 (Gasterosteus aculeatus) [µg/mL] | NOEC (Oncorhynchus mykiss) [mg/L] | LC50 (Tagia sp.) [mg/kg] | NOEC (Daphnia magna) [mg/L] | NOAEL (Oryctolagus sp.) [mg/kg-day] | NOAEL (Homo sapiens) [mg/kg-day] | LD50 (Rattus norvegicus; acute, oral, F, mortality) [mg/kg] | NOAEL (Rattus norvegicus; chronic, duration: 2 years) [mg/kg-day] | NOAEL (Rattus norvegicus; subchronic, duration: 90 days, oral) [mg/kg-day] | LD50 (Colinus virginianus; diet) | LD50 (Colinus virginianus) [mg/kg] | NOEC (Colinus virginianus; reproduction developmental) [mg/kg-day] | LR50 (Aphidius rhopalosiphi) [g/ha]
CCOC(=O)CC(SP(=S)(OC)OC)C(=O)OCC (stereo unspecified) [Malathion] | 0.16 | 0.022 (≈ 0.0666 µM) | 0.021 | 613 | 6e-05 | 25 | > 15 | 1780 | 29 | 34.4 | 554 mg/kg-day | 359 | 13.5 | 0.0612
CCOC(=O)CC(SP(=O)(OC)OC)C(=O)OCC (stereo unspecified) [Malaoxon] |  |  |  |  |  |  |  |  |  |  | 334 mg/kg | 43 |  | 
